We go through 2 molecules from US20070059369A1, “Subcutaneous delivery system, process for the preparation of the same and use of the same for the treatment of cholinergic deficient disorders” (priority 2003, published 2007).

For experiment [1], the system named is acetylcholinesterase (AChE). Description: Inhibition of acetylcholinesterase. The note with it: different species (rat, bovine and human). Type of experiment: biochemical.
The target in experiment [2] is butyrylcholinesterase (BuChE) (Homo sapiens, UniProt P06276). Description: Inhibition of butyrylcholinesterase. Type of experiment: biochemical. The note with it: in contrast to AChE.
The target in another experiment is acetylcholinesterase (Homo sapiens, UniProt P22303). Particulars: from EP 0 806 416; cited from earlier work.
The conditions of experiment [3]: aged patients and patients suffering from Alzheimer's disease; cited from earlier work.
The test system of experiment [4] is cerebral hypoxia-ischemia rat model. Particulars: cited from earlier work.

butyrylcholinesterase (BuChE), sequence (P06276 29-602): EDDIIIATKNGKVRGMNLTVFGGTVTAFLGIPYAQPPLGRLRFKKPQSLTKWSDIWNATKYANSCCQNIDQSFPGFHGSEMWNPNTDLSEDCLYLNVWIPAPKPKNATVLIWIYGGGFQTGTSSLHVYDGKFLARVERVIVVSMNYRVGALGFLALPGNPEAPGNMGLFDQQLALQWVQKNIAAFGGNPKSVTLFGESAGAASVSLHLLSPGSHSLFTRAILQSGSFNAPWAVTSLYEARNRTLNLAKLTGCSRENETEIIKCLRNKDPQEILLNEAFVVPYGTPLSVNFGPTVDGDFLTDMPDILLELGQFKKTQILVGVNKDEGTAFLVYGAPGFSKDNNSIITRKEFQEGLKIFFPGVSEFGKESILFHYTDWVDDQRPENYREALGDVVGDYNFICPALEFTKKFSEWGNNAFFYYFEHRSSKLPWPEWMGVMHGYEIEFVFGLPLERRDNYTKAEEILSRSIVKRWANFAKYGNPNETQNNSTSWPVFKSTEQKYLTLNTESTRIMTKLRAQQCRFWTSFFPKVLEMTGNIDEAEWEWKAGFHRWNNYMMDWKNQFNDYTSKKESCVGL
acetylcholinesterase, sequence (P22303 32-614): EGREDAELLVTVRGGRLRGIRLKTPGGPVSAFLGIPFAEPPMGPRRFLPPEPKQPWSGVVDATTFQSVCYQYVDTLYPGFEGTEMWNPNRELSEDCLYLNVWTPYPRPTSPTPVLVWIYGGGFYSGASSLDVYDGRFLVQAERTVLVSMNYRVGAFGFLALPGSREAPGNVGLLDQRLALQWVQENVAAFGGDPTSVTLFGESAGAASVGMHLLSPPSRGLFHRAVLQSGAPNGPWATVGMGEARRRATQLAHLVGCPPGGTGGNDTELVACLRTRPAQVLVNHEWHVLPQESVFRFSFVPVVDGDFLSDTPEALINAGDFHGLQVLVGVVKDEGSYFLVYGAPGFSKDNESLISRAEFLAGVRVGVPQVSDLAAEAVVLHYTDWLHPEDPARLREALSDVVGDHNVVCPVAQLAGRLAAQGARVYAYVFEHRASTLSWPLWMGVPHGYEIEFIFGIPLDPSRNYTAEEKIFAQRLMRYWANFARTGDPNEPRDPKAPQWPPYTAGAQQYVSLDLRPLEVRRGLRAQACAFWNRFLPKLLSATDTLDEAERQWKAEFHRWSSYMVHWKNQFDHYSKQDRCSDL

As to `C/C=C1\C2C=C(C)CC1(/N=C/c1cc(Cl)cc(OC)c1O)c1ccc(=O)[nH]c1C2` (centres unmarked) [derivative of formula (III)], the “Inhibition of acetylcholinesterase (AChE)” value in experiment [1] was “potent and selective inhibitor”. The “Inhibitory activity on butyrylcholinesterase (BuChE)” value in experiment [2] is recorded as “much weaker inhibitory activity”. The “Selectivity for acetylcholinesterase compared to butyrylcholinesterase” value at acetylcholinesterase was “highly selective activity in favour of acetylcholinesterase”.
For `C/C=C1\[C@H]2C=C(C)C[C@]1(N)c1ccc(=O)[nH]c1C2` [Huperzine A], the Memory-enhancing effects entry in experiment [3] is on record as “memory-enhancing effects”. For the same molecule, the “Neuroprotective effect of rescue treatment” value in experiment [4] is on record as “beneficial neuroprotective effect”.
